Results published in ChEMBL document CHEMBL1149262, “Monoamine transporter binding, locomotor activity, and drug discrimination properties of 3-(4-substituted-phenyl)tropane-2-carboxylic acid methyl ester isomers” (J Med Chem, 2004).
The source made the active and inactive calls. The calls are words filed in the database; no cut-off is given here.

Experiments:
Rattus norvegicus [1] = assay: Cocaine discrimination in ip dosed CD Albino rat; assay type: functional
Rattus norvegicus [2] = assay: Drug discrimination effect in CD Albino rat assessed as percent of rat choosing cocaine lever at 1 mg/kg, ip; assay type: functional; settings: route intraperitoneal
Rattus norvegicus [3] = assay: Drug discrimination effect in CD Albino rat assessed as percent of rat choosing cocaine lever at 1.7 mg/kg, ip; assay type: functional; settings: route intraperitoneal
Rattus norvegicus [4] = assay: Drug discrimination effect in CD Albino rat assessed as percent of rat choosing cocaine lever at 3 mg/kg, ip; assay type: functional; settings: route intraperitoneal
Rattus norvegicus [5] = assay: Drug discrimination effect in CD Albino rat assessed as percent of rat choosing cocaine lever at 5.6 mg/kg, ip; assay type: functional; settings: route intraperitoneal
Rattus norvegicus [6] = assay: Drug discrimination effect in CD Albino rat assessed as percent of rat choosing cocaine lever at 10 mg/kg, ip; assay type: functional; settings: route intraperitoneal
Mus musculus [7] = assay: Activity in CD1 mouse assessed as slight or intermittent hyperactivity at 100 mg/kg, ip after 4 hrs; assay type: functional, organism-based; parameters: dose 100 mg/kg
[8] = target: Sodium-dependent dopamine transporter (Homo sapiens, UniProt Q01959); assay: Displacement of [3H]WIN-35428 from DAT
Sequence of Sodium-dependent dopamine transporter (Q01959 whole entry): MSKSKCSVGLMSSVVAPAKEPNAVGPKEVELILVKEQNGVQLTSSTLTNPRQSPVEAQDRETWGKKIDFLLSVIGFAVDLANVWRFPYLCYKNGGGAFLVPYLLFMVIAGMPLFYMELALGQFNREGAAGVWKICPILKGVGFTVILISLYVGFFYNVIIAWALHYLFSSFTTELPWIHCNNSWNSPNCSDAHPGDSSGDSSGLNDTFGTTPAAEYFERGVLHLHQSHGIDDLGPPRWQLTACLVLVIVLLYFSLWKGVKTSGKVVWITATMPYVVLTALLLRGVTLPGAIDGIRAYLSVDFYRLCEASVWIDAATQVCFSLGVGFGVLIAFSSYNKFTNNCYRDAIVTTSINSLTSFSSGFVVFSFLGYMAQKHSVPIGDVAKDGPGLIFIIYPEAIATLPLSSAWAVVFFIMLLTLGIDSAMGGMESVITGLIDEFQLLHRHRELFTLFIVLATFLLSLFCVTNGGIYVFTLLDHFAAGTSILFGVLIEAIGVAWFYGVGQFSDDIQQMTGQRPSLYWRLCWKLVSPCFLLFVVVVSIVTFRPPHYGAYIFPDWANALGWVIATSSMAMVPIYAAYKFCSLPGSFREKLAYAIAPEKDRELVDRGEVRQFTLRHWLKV

[9] = target: Sodium-dependent noradrenaline transporter (Homo sapiens, UniProt P23975); assay: Displacement of [3H]nisoxetine from NET
Sequence of Sodium-dependent noradrenaline transporter (P23975 whole entry): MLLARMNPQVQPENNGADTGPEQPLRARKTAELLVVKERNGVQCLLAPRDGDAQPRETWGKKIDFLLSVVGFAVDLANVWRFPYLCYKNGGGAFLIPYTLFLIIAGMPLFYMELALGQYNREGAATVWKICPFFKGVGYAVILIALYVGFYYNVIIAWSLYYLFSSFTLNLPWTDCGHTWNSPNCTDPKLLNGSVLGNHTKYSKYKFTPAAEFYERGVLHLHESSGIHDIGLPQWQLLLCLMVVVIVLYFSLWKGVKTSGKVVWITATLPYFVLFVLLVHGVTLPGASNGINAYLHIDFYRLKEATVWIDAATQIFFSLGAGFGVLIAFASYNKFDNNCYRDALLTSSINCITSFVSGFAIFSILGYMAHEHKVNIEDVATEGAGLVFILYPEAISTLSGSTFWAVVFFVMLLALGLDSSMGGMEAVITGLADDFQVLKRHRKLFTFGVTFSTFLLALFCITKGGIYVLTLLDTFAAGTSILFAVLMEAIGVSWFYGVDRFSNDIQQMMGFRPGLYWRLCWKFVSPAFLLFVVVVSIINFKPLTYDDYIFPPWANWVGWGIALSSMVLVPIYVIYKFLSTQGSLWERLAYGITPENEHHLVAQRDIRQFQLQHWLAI

Mus musculus [10] = assay: Locomotor activity in ip dosed CD1 mouse in peak hour; assay type: functional
Mus musculus [11] = assay: Locomotor activity in CD1 mouse assessed as stimulation at 3 mg/kg, ip after 1 hr relative to control; assay type: functional; settings: route intraperitoneal
Mus musculus [12] = assay: Locomotor activity in CD1 mouse assessed as stimulation at 3 mg/kg, ip after 2 hrs relative to control; assay type: functional; settings: route intraperitoneal
Mus musculus [13] = assay: Locomotor activity in CD1 mouse assessed as stimulation at 3 mg/kg, ip after 3 hrs relative to control; assay type: functional; settings: route intraperitoneal
Mus musculus [14] = assay: Locomotor activity in CD1 mouse assessed as stimulation at 3 mg/kg, ip after 4 hrs relative to control; assay type: functional; settings: route intraperitoneal
Mus musculus [15] = assay: Locomotor activity in CD1 mouse assessed as stimulation at 10 mg/kg, ip after 1 hr relative to control; assay type: functional; settings: route intraperitoneal
Mus musculus [16] = assay: Locomotor activity in CD1 mouse assessed as stimulation at 10 mg/kg, ip after 2 hrs relative to control; assay type: functional; settings: route intraperitoneal
Mus musculus [17] = assay: Locomotor activity in CD1 mouse assessed as stimulation at 10 mg/kg, ip after 3 hrs relative to control; assay type: functional; settings: route intraperitoneal
Mus musculus [18] = assay: Locomotor activity in CD1 mouse assessed as stimulation at 10 mg/kg, ip after 4 hrs relative to control; assay type: functional; settings: route intraperitoneal
Mus musculus [19] = assay: Locomotor activity in CD1 mouse assessed as stimulation at 30 mg/kg, ip after 1 hr relative to control; assay type: functional; settings: route intraperitoneal
Mus musculus [20] = assay: Locomotor activity in CD1 mouse assessed as stimulation at 30 mg/kg, ip after 2 hrs relative to control; assay type: functional; settings: route intraperitoneal
Mus musculus [21] = assay: Locomotor activity in CD1 mouse assessed as stimulation at 30 mg/kg, ip after 3 hrs relative to control; assay type: functional; settings: route intraperitoneal
Mus musculus [22] = assay: Locomotor activity in CD1 mouse assessed as stimulation at 30 mg/kg, ip after 4 hrs relative to control; assay type: functional; settings: route intraperitoneal
Mus musculus [23] = assay: Locomotor activity in CD1 mouse assessed as stimulation at 100 mg/kg, ip after 1 hr relative to control; assay type: functional; settings: route intraperitoneal
Mus musculus [24] = assay: Locomotor activity in CD1 mouse assessed as stimulation at 100 mg/kg, ip after 2 hrs relative to control; assay type: functional; settings: route intraperitoneal
Mus musculus [25] = assay: Locomotor activity in CD1 mouse assessed as stimulation at 100 mg/kg, ip after 3 hrs relative to control; assay type: functional; settings: route intraperitoneal
Mus musculus [26] = assay: Locomotor activity in CD1 mouse assessed as stimulation at 100 mg/kg, ip after 4 hrs relative to control; assay type: functional; settings: route intraperitoneal
Mus musculus [27] = assay: Locomotor activity in ip dosed CD1 mouse after 1 hr relative to cocaine; assay type: functional
[28] = target: Sodium-dependent serotonin transporter (Homo sapiens, UniProt P31645)
Sequence of Sodium-dependent serotonin transporter (P31645 whole entry): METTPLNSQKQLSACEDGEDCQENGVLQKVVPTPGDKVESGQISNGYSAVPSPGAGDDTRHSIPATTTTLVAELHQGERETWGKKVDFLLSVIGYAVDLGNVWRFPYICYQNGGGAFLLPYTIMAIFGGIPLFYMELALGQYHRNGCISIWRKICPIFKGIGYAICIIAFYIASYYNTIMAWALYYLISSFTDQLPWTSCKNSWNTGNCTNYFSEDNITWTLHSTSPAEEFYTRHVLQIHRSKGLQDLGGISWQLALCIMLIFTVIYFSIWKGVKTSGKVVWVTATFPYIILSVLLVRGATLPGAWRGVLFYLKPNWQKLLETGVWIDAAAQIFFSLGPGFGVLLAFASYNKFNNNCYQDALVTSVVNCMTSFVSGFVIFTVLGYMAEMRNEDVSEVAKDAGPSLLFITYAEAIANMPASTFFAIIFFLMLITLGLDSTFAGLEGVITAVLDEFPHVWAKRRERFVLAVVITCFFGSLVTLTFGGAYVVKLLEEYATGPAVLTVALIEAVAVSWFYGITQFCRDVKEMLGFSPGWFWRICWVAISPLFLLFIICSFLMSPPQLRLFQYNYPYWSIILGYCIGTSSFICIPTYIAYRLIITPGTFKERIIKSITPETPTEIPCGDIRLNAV
Description: Displacement of [3H]paroxetine from 5HTT

Mus musculus [29] = assay: Locomotor activity in CD1 mouse assessed as stimulation at 1 mg/kg, ip after 1 hr relative to control; assay type: functional; settings: route intraperitoneal
Mus musculus [30] = assay: Locomotor activity in CD1 mouse assessed as stimulation at 1 mg/kg, ip after 2 hrs relative to control; assay type: functional; settings: route intraperitoneal
Mus musculus [31] = assay: Locomotor activity in CD1 mouse assessed as stimulation at 1 mg/kg, ip after 3 hrs relative to control; assay type: functional; settings: route intraperitoneal
Mus musculus [32] = assay: Locomotor activity in CD1 mouse assessed as stimulation at 1 mg/kg, ip after 4 hrs relative to control; assay type: functional; settings: route intraperitoneal
Rattus norvegicus [33] = assay: Drug discrimination effect in CD Albino rat assessed as percent of rat choosing cocaine lever at 17 mg/kg, ip; assay type: functional; settings: route intraperitoneal
Mus musculus [34] = assay: Activity in CD1 mouse assessed as slight or intermittent stereotypy at 10 mg/kg, ip after 4 hrs; assay type: functional, organism-based; parameters: dose 10 mg/kg
Mus musculus [35] = assay: Activity in CD1 mouse assessed as stereotypy at 100 mg/kg, ip after 4 hrs; assay type: functional, organism-based; parameters: dose 100 mg/kg
Mus musculus [36] = assay: Activity in CD1 mouse assessed as straub tail at 100 mg/kg, ip after 4 hrs; assay type: functional, organism-based; parameters: dose 100 mg/kg
Mus musculus [37] = assay: Activity in CD1 mouse assessed as hind limb splay at 100 mg/kg, ip after 4 hrs; assay type: functional, organism-based; parameters: dose 100 mg/kg; settings: Hindlimb
Mus musculus [38] = assay: Activity in CD1 mouse assessed as death at 100 mg/kg, ip after 4 hrs; assay type: functional, organism-based; parameters: dose 100 mg/kg
Mus musculus [39] = assay: Activity in CD1 mouse assessed as convulsions at 100 mg/kg, ip after 4 hrs; assay type: functional, organism-based; parameters: dose 100 mg/kg
Mus musculus [40] = assay: Activity in CD1 mouse assessed as tremor at 100 mg/kg, ip after 4 hrs; assay type: functional, organism-based; parameters: dose 100 mg/kg

Compound	ED50 (Rattus norvegicus [1])	Activity (Rattus norvegicus [4])	Activity (Rattus norvegicus [6])	IC50 [8]	IC50 [9]	Ki [9]	ED50 (Mus musculus [10])	Activity (Mus musculus [11])	Activity (Mus musculus [12])	Activity (Mus musculus [13])	Activity (Mus musculus [14])	Activity (Mus musculus [15])	Activity (Mus musculus [16])	Activity (Mus musculus [17])	Activity (Mus musculus [18])	Activity (Mus musculus [19])	Activity (Mus musculus [20])	Activity (Mus musculus [21])	Activity (Mus musculus [22])	Ratio (Mus musculus [27])	other results
COC(=O)[C@@H]1C2CCC(C[C@H]1c1ccc(I)cc1)N2C (some centres undefined)	4.72 mg/kg	43%	86%	2.9 nM	52.4 nM	32 nM	7.7 mg/kg	14%	-72%	64%	-42%	210%	100%	457%	49%	308%	121%	391%	25%	1	Activity (Rattus norvegicus [2]): 0%; Activity (Rattus norvegicus [3]): 14%; Activity (Rattus norvegicus [5]): 44%; Activity (Mus musculus [7]): Active; Activity (Mus musculus [23]): 328%; Activity (Mus musculus [24]): 168%; Activity (Mus musculus [25]): 692%; Activity (Mus musculus [26]): 124%; IC50 [28]: 64.9 nM; Ki [28]: 5.9 nM
COC(=O)[C@H]1C2CCC(C[C@@H]1c1ccc(I)cc1)N2C (some centres undefined)	13.5 mg/kg	0%	14%	22.7 nM	760 nM	458 nM	9.9 mg/kg	19%	17%	96%	13%	17%	49%	85%	40%	7%	150%	268%	255%	0.1	Activity (Mus musculus [29]): 0%; Activity (Mus musculus [30]): 44%; Activity (Mus musculus [31]): 99%; Activity (Mus musculus [32]): 41%; Activity (Rattus norvegicus [33]): 80%; Activity (Mus musculus [34]): Active; Activity (Mus musculus [35]): Active; Activity (Mus musculus [36]): Active; Activity (Mus musculus [37]): Active; Activity (Mus musculus [38]): Active; Activity (Mus musculus [39]): Active; Activity (Mus musculus [40]): Active; IC50 [28]: 66.3 nM; Ki [28]: 6 nM
